Patent US12404244B2, “Pan-KIT kinase inhibitor having quinoline structure and application thereof” (Tarapeutics Science Inc., priority 2018, dated 2025)
Like-named read-outs stand apart in the source and are kept apart here.

Tests used:
[1] = test system: TEL-KIT/T670I-BaF3; experiment: Proliferation of TEL-KIT/T670I-BaF3 cells (CCK-8); format: cell-based, mouse; conditions: Mus musculus, read-out: GI50 TEL-KIT/T670I-BaF3
From the text: (§1) Compounds as provided herein were further evaluated for their inhibitory effects on proliferation of cancer cells by testing their effects on growth of cancer cells. In this example the following cells were used: primary mouse B cells BaF3 (purchased from ATCC), GIST-T1 cells of the human gastrointestinal stromal tumor cell line (expressing wild-type KIT gene) (purchased from Cosmo Bio Co., Ltd. (Japan)). The present lab further constructed and used the following: mouse Tel-Kit-BaF3 (stably expressing KIT wild-type kinase), mouse Tel-Kit/T670I-BaF3 (stably expressing KIT T670I mutant kinase), mouse Tel-Kit/V559A-BaF3 (stably expressing KIT V559A mutant kinase), mouse Tel-Kit/V559D-BaF3 (stably expressing KIT V559D mutant kinase), mouse Tel-Kit/V559G-BaF3 (stably expressing KIT V559G mutant kinase), mouse Tel-Kit/V560D-BaF3 (stably expressing KIT V560D mutant kinase), mouse Tel-Kit/L576P-BaF3 (stably expressing KIT L576P mutant kinase), mouse Tel-Kit/V654A-BaF3 (stably expressing KIT V654A mutant kinase), mouse Tel-Kit/V654A/V559D-BaF3 (stably expressing KIT V654A V559D mutant kinase), mouse Tel-Kit/T670E-BaF3 (stably expressing KIT T670E mutant kinase), mouse Tel-Kit/T670I/V559D-BaF3 (stably expressing KIT T670I V559D mutant kinase), mouse Tel-Kit/S709F-BaF3 (stably expressing KIT S709F mutant kinase), mouse Tel-Kit/D816E-BaF3 (stably expressing KIT D816E mutant kinase), mouse Tel-Kit/D816H-BaF3 (stably expressing KIT D816H mutant kinase), mouse Tel-Kit/D820E-BaF3 (stably expressing KIT D820E mutant kinase), mouse Tel-Kit/D820G-BaF3 (stably expressing KIT D820G mutant kinase), mouse Tel-Kit/D820Y-BaF3 (stably expressing KIT D820Y mutant kinase), mouse Tel-Kit/N822K-BaF3 (stably expressing KIT N822K mutant kinase), mouse Tel-Kit/Y823D-BaF3 (stably expressing KIT Y823D mutant kinase), mouse Tel-Kit/A829P-BaF3 (stably expressing KIT A829P mutant kinase), GIST-T1-T670I cells of the human gastrointestinal stromal tumor cell line (expressing KIT-T670I mutant gene). The above cell lines were constructed by: amplifying respectively the sequences of human KIT and various mutant kinase regions of KIT via PCR, inserting the fragments respectively into MSCV-Puro vectors having a N-terminal TEL fragment and/or a NPM fragment and/or a TPR fragment (purchased from Clontech), transfecting mouse BaF3 cells with the vectors by means of retrovirus to obtain stably transfected cells, removing the growth factor IL-3, and thereby eventually obtaining cell lines that depend on the transferred protein KIT or various mutants of KIT. The GIST-T1-T670I (expressing C-KIT-T670I mutant gene) cell line was constructed by our laboratory as follows: designing sgRNA that targeted a region around T670 of the KIT gene with CRISPR Design Tool (website: crispr.mit.edu, Zhang Feng Lab), cloning it into pSpCas9(BB)-2A-Puro vector; co-transfecting cells with the resultant vector and a single-stranded oligonucleotide having T670I site mutation that is near to T670, subjecting the resultant to antibiotics screening, followed by dilution, and monocellular culture in a 96-well plate; validating the site T670 of the cells by sequence detection via Sanger sequencing.

[2] = test system: TEL-KIT/L576P-BaF3; experiment: Proliferation of TEL-KIT/L576P-BaF3 cells (CCK-8); format: cell-based; conditions: Mus musculus, read-out: GI50 TEL-KIT/L576P-BaF3
From the text: (§2) Compounds as provided herein were further evaluated for their inhibitory effects on proliferation of cancer cells by testing their effects on growth of cancer cells. In this example the following cells were used: primary mouse B cells BaF3 (purchased from ATCC), GIST-T1 cells of the human gastrointestinal stromal tumor cell line (expressing wild-type KIT gene) (purchased from Cosmo Bio Co., Ltd. (Japan)). The present lab further constructed and used the following: mouse Tel-Kit-BaF3 (stably expressing KIT wild-type kinase), mouse Tel-Kit/T670I-BaF3 (stably expressing KIT T670I mutant kinase), mouse Tel-Kit/V559A-BaF3 (stably expressing KIT V559A mutant kinase), mouse Tel-Kit/V559D-BaF3 (stably expressing KIT V559D mutant kinase), mouse Tel-Kit/V559G-BaF3 (stably expressing KIT V559G mutant kinase), mouse Tel-Kit/V560D-BaF3 (stably expressing KIT V560D mutant kinase), mouse Tel-Kit/L576P-BaF3 (stably expressing KIT L576P mutant kinase), mouse Tel-Kit/V654A-BaF3 (stably expressing KIT V654A mutant kinase), mouse Tel-Kit/V654A/V559D-BaF3 (stably expressing KIT V654A V559D mutant kinase), mouse Tel-Kit/T670E-BaF3 (stably expressing KIT T670E mutant kinase), mouse Tel-Kit/T670I/V559D-BaF3 (stably expressing KIT T670I V559D mutant kinase), mouse Tel-Kit/S709F-BaF3 (stably expressing KIT S709F mutant kinase), mouse Tel-Kit/D816E-BaF3 (stably expressing KIT D816E mutant kinase), mouse Tel-Kit/D816H-BaF3 (stably expressing KIT D816H mutant kinase), mouse Tel-Kit/D820E-BaF3 (stably expressing KIT D820E mutant kinase), mouse Tel-Kit/D820G-BaF3 (stably expressing KIT D820G mutant kinase), mouse Tel-Kit/D820Y-BaF3 (stably expressing KIT D820Y mutant kinase), mouse Tel-Kit/N822K-BaF3 (stably expressing KIT N822K mutant kinase), mouse Tel-Kit/Y823D-BaF3 (stably expressing KIT Y823D mutant kinase), mouse Tel-Kit/A829P-BaF3 (stably expressing KIT A829P mutant kinase), GIST-T1-T670I cells of the human gastrointestinal stromal tumor cell line (expressing KIT-T670I mutant gene). […]

[3] = test system: TEL-KIT/D816H-BaF3; experiment: Proliferation of TEL-KIT/D816H-BaF3 cells (CCK-8); format: cell-based; conditions: Mus musculus, read-out: GI50 TEL-KIT/D816H-BaF3
From the text: as §1, with “The GIST-T1-T670I (expressing C-KIT-T670I mutant gene) cell line was constructed by our laboratory as follows: designing sgRNA that targeted a region around T670 of the KIT gene with CRISPR Design Tool (website: crispr.mit.edu, Zhang Feng Lab), cloning it into pSpCas9(BB)-2A-Puro vector; co-transfecting cells with the resultant vector and a single-stranded oligonucleotide having T670I site mutation that is near to T670, subjecting the resultant to antibiotics screening, followed by dilution, and monocellular culture in a 96-well plate; validating the site T670 of the cells by sequence detection via Sanger sequencing.” left out

[4] = test system: TEL-KIT/D820E-BaF3; experiment: Proliferation of TEL-KIT/D820E-BaF3 cells (CCK-8); format: cell-based; conditions: Mus musculus, read-out: GI50 TEL-KIT/D820E-BaF3
From the text: as §1, with “The GIST-T1-T670I (expressing C-KIT-T670I mutant gene) cell line was constructed by our laboratory as follows: designing sgRNA that targeted a region around T670 of the KIT gene with CRISPR Design Tool (website: crispr.mit.edu, Zhang Feng Lab), cloning it into pSpCas9(BB)-2A-Puro vector; co-transfecting cells with the resultant vector and a single-stranded oligonucleotide having T670I site mutation that is near to T670, subjecting the resultant to antibiotics screening, followed by dilution, and monocellular culture in a 96-well plate; validating the site T670 of the cells by sequence detection via Sanger sequencing.” left out

[5] = test system: GIST-T1; experiment: Proliferation of GIST-T1 cells (CCK-8); format: cell-based; conditions: Homo sapiens, read-out: GI50 GIST-T1
From the text: as §2
The cells after incubation were detected using CCK-8 (purchased from MedChem Express, Shanghai, China) cell viability assay kit (CCK-8 may be reduced by dehydrogenase in living cells to a highly water-soluble yellow formazan product, and the amount of the resultant formazan is proportional to the number of living cells), the number of living cells were quantified with a microplate reader, and GI50 of the compounds and the control compounds were calculated (the results shown in Table 2 and Table 3).

[6] = test system: TEL-KIT/Y823D-BaF3; experiment: Proliferation of TEL-KIT/Y823D-BaF3 cells (CCK-8); format: cell-based; conditions: Mus musculus, read-out: GI50 TEL-KIT/Y823D-BaF3
From the text: as §1, with “The GIST-T1-T670I (expressing C-KIT-T670I mutant gene) cell line was constructed by our laboratory as follows: designing sgRNA that targeted a region around T670 of the KIT gene with CRISPR Design Tool (website: crispr.mit.edu, Zhang Feng Lab), cloning it into pSpCas9(BB)-2A-Puro vector; co-transfecting cells with the resultant vector and a single-stranded oligonucleotide having T670I site mutation that is near to T670, subjecting the resultant to antibiotics screening, followed by dilution, and monocellular culture in a 96-well plate; validating the site T670 of the cells by sequence detection via Sanger sequencing.” left out

[7] = test system: TEL-KIT/S709F-BaF3; experiment: Proliferation of TEL-KIT/S709F-BaF3 cells (CCK-8); format: cell-based; conditions: Mus musculus, read-out: GI50 TEL-KIT/S709F-BaF3
From the text: as §1, with “The GIST-T1-T670I (expressing C-KIT-T670I mutant gene) cell line was constructed by our laboratory as follows: designing sgRNA that targeted a region around T670 of the KIT gene with CRISPR Design Tool (website: crispr.mit.edu, Zhang Feng Lab), cloning it into pSpCas9(BB)-2A-Puro vector; co-transfecting cells with the resultant vector and a single-stranded oligonucleotide having T670I site mutation that is near to T670, subjecting the resultant to antibiotics screening, followed by dilution, and monocellular culture in a 96-well plate; validating the site T670 of the cells by sequence detection via Sanger sequencing.” left out

| SMILES | GI50 ([1]; 72 h) [nM] | GI50 ([2]; 72 h) [nM] | GI50 ([3]; 72 h) [nM] | GI50 ([4]; 72 h) [nM] | GI50 ([5]; GISTT1, 72 h) [nM] | GI50 ([6]; 72 h) [nM] | GI50 ([7]; 72 h) [nM] | GI50 ([1]; 72 hours, CCK-8) [nM] | GI50 ([2]; 72 hours, CCK-8) [nM] | GI50 ([3]; 72 hours, CCK-8) [nM] | GI50 ([4]; 72 hours, CCK-8) [nM] | GI50 ([5]; GISTT1, 72 hours, CCK-8) [nM] | GI50 ([6]; 72 hours, CCK-8) [nM] | GI50 ([7]; 72 hours, CCK-8) [nM] |
| --- | --- | --- | --- | --- | --- | --- | --- | --- | --- | --- | --- | --- | --- | --- |
| COc1cc2nccc(Oc3ccc(NC(=O)Cc4ccc(C)c(C(F)(F)F)c4)cc3)c2cc1OC [Example 1, N-(4-((6,7-dimethoxyquinolin-4-yl)oxy)phenyl)-2-(4-methyl-3-(trifluoromethyl)phenyl)acetamide] | 14 | 2 | 58 | 5 | 5 | 15 | 11 |  |  |  |  |  |  |  |
| COc1cc2nccc(Oc3ccc(NC(=O)Cc4ccc(Cl)c(C(F)(F)F)c4)cc3)c2cc1OC [Example 2, N-(4-((6,7-dimethoxyquinolin-4-yl)oxy)phenyl)-2-(4-chloro-3-(trifluoromethyl)phenyl)-acetamide] |  |  |  |  |  |  |  | 4 | 1 | 97 | 1 | 6 | 35 | 17 |
| CCN(CC)CCNC(=O)c1c(C)[nH]c(/C=C2\C(=O)Nc3ccc(F)cc32)c1C [Sunitinib, reference compound] |  |  |  |  |  |  |  | 21 | 6 | 315 | 93 | 11 | 704 | 28 |
